Measurements reported in patent US6509351B1, “Phenyl- and pyridyl-tetrahydro-pyridines having TNF inhibiting activity” (Sanofi-Syntelabo, priority 1999, dated 2003).
Structures can show the parent of a compound that is named as a salt.

Row | melting point [°C] | SMILES
1 | 230 | CCc1cc2ccc(CCN3CC=C(c4cccc(C(F)(F)F)c4)CC3)cc2cn1 (as salt: hydrochloride)
2 | 221 | Cc1ccc2ccc(CCN3CC=C(c4cccc(C(F)(F)F)c4)CC3)cc2n1 (as salt: hydrochloride)
